Test results reported in patent US20170304317A1, “DIETARY S[…] MUSCLE GROWTH AND STRENGTH” (priority 2015, published 2017).

Experiments:
[1] = cited from earlier work
[2] = Bioavailability / half-life of 19 Nor-DHEA forms; type: in vivo; conditions: compared with regular 19 Nor-DHEA
[3] = regular (non-esterified) 19 Nor-DHEA; cited from earlier work
[4] = via conversion to 4-androstenediol; stated as well known; cited from earlier work

## C[C@]12C=CC(O)CC1CC[C@@H]1[C@@H]2CC[C@]2(C)C(=O)CC[C@@H]12 (some centres unmarked) [1-DHEA]
[1]; stated as generally known
  conversion rate to 1-testosterone: less than 2%

## CCCCCCC(=O)O[C@@H]1C=C2CC[C@@H]3[C@H](CC[C@]4(C)C(=O)CC[C@@H]34)[C@H]2CC1 [enanthated 19 Nor-DHEA, 3b-enanthoxy-19-nor-androst-4-ene-17-one]
[2]
  bioavailability: improved bioavailability

## C[C@]12CC[C@H](O)CC1=CC[C@@H]1[C@@H]2CC[C@]2(C)C(=O)CC[C@@H]12 [DHEA, dehydroepiandrosterone]
[1]; stated as well known
  conversion rate to testosterone: ~1%

## C[C@]12CC[C@H]3[C@@H](CC=C4C[C@@H](O)CC[C@@H]43)[C@@H]1CCC2=O [19 Nor-DHEA]
[3]
  half-life: very short half-life

## C[C@]12CC[C@H](O)C=C1CC[C@@H]1[C@@H]2CC[C@]2(C)C(=O)CC[C@@H]12 [4-DHEA]
[4]
  anabolic potency compared with regular DHEA: more than two times greater
